Consider six molecules from ChEMBL document CHEMBL5724914, “Linking interpersonal differences in gut microbiota composition and drug biotransformation activity” (2024).

Series [1] in a line: The drug is tested on Z-030 corresponding to mouse gut metagenome with ENA study accession number: PRJEB37062 and ENA sample accession number: ERS12561829 for biotransformation under anaerobic condition. The drug concentrations were measured over 9 timepoints collected between 0 and 24 hours of incubation by liquid-chromatography-coupled mass spectrometry (LC–MS). To be noted: 2 µM.

The nature of series [2]: The drug is tested on Z-025 corresponding to rabbit gut metagenome with ENA study accession number: PRJEB37062 and ENA sample accession number: ERS12561824 for biotransformation under anaerobic condition. The drug concentrations were measured over 9 timepoints collected between 0 and 24 hours of incubation by liquid-chromatography-coupled mass spectrometry (LC–MS). To be noted: 2 µM.

A short description of series [3]: The drug is tested on Z-023 corresponding to metagenome with ENA study accession number: PRJEB37062 and ENA sample accession number: ERS12561822 for biotransformation under anaerobic condition. The drug concentrations were measured over 9 timepoints collected between 0 and 24 hours of incubation by liquid-chromatography-coupled mass spectrometry (LC–MS). To be noted: 2 µM.

The nature of series [4]: The drug is tested on Z-017 corresponding to mouse gut metagenome with ENA study accession number: PRJEB37062 and ENA sample accession number: ERS12561816 for biotransformation under anaerobic condition. The drug concentrations were measured over 9 timepoints collected between 0 and 24 hours of incubation by liquid-chromatography-coupled mass spectrometry (LC–MS). To be noted: 2 µM.

The nature of series [5]: The drug is tested on Z-013 corresponding to rabbit gut metagenome with ENA study accession number: PRJEB37062 and ENA sample accession number: ERS12561813 for biotransformation under anaerobic condition. The drug concentrations were measured over 9 timepoints collected between 0 and 24 hours of incubation by liquid-chromatography-coupled mass spectrometry (LC–MS). To be noted: 2 µM.

Series [6] can be described thus: The drug is tested on Z-011 corresponding to mouse gut metagenome with ENA study accession number: PRJEB37062 and ENA sample accession number: ERS12561811 for biotransformation under anaerobic condition. The drug concentrations were measured over 9 timepoints collected between 0 and 24 hours of incubation by liquid-chromatography-coupled mass spectrometry (LC–MS). To be noted: 2 µM.

The nature of series [7]: The drug is tested on Z-010 corresponding to metagenome with ENA study accession number: PRJEB37062 and ENA sample accession number: ERS12561810 for biotransformation under anaerobic condition. The drug concentrations were measured over 9 timepoints collected between 0 and 24 hours of incubation by liquid-chromatography-coupled mass spectrometry (LC–MS). To be noted: 2 µM.

The nature of series [8]: The drug is tested on Z-009 corresponding to pig gut metagenome with ENA study accession number: PRJEB37062 and ENA sample accession number: ERS12561809 for biotransformation under anaerobic condition. The drug concentrations were measured over 9 timepoints collected between 0 and 24 hours of incubation by liquid-chromatography-coupled mass spectrometry (LC–MS). To be noted: 2 µM.

A short description of series [9]: The drug is tested on Z-003 corresponding to pig gut metagenome with ENA study accession number: PRJEB37062 and ENA sample accession number: ERS12561803 for biotransformation under anaerobic condition. The drug concentrations were measured over 9 timepoints collected between 0 and 24 hours of incubation by liquid-chromatography-coupled mass spectrometry (LC–MS). To be noted: 2 µM.

A short description of series [10]: The drug is tested on WLS-240 corresponding to human gut metagenome with ENA study accession number: PRJEB37062 and ENA sample accession number: ERS12561773 for biotransformation under anaerobic condition. The drug concentrations were measured over 9 timepoints collected between 0 and 24 hours of incubation by liquid-chromatography-coupled mass spectrometry (LC–MS). To be noted: 2 µM.

The nature of series [11]: The drug is tested on WLS-220 corresponding to human gut metagenome with ENA study accession number: PRJEB37062 and ENA sample accession number: ERS12561769 for biotransformation under anaerobic condition. The drug concentrations were measured over 9 timepoints collected between 0 and 24 hours of incubation by liquid-chromatography-coupled mass spectrometry (LC–MS). To be noted: 2 µM.

The nature of series [12]: The drug is tested on WLS-090 corresponding to human gut metagenome with ENA study accession number: PRJEB37062 and ENA sample accession number: ERS12561753 for biotransformation under anaerobic condition. The drug concentrations were measured over 9 timepoints collected between 0 and 24 hours of incubation by liquid-chromatography-coupled mass spectrometry (LC–MS). To be noted: 2 µM.

The conditions of series [13]: human gut metagenome, 24 h, 2 µM.
The conditions of series [14]: human gut metagenome, 24 h, 2 µM. The source holds these as a separate data set.
For series [15] the following is noted: human gut metagenome, 24 h, 2 µM. The source holds these as a separate data set.
The conditions of series [16]: human gut metagenome, 24 h, 2 µM. The source holds these as a separate data set.
The conditions of series [17]: human gut metagenome, 24 h, 2 µM. This is another data set of the same source.
The conditions of series [18]: human gut metagenome, 24 h, 2 µM. The source holds these as a separate data set.
For series [19] the following is noted: human gut metagenome, 24 h, 2 µM. The source holds these as a separate data set.
The conditions of series [20]: human gut metagenome, 24 h, 2 µM. The source holds these as a separate data set.
Also: call rule not given here.

Consider `CCc1oc2ccccc2c1C(=O)c1cc(Br)c(O)c(Br)c1` [BENZBROMARONE], for which the “Bacterial Biotransformation” value in [1] is reported as “Compound NOT metabolized”; in series [2] it was “Compound NOT metabolized”; in [3] it was “Compound NOT metabolized”; in series [4], “Compound NOT metabolized”; in [5], “Compound NOT metabolized”; in [6] it was “Compound metabolized”. Moreover, the “Bacterial Biotransformation” value in [7] is “Compound metabolized”; in [8] it was “Compound NOT metabolized”; in series [9], “Compound metabolized”; in series [10] it was “Compound metabolized”; in series [11], “Compound metabolized”; in series [12] it was “Compound metabolized”. In addition, the “Bacterial Biotransformation” value in series [13] is listed as “Compound metabolized”; in series [14] it was “Compound NOT metabolized”; in [15], “Compound NOT metabolized”; in series [16], “Compound metabolized”; in series [17] it was “Compound NOT metabolized”; in [18], “Compound metabolized”. In addition, the “Bacterial Biotransformation” value in [19] and in series [20] was “Compound metabolized” each time.
In the case of `CC(NC(C)(C)C)C(=O)c1cccc(Cl)c1` (stereo not given) [BUPROPION], the “Bacterial Biotransformation” value is recorded as “Compound NOT metabolized” in series [1]; “Compound NOT metabolized” in [2]; “Compound NOT metabolized” in series [3]; “Compound NOT metabolized” in [4]; “Compound metabolized” in series [5]; “Compound NOT metabolized” in series [6]. The “Bacterial Biotransformation” value in series [7], in series [8], in [9], in series [10], in series [11] and in [12] was “Compound NOT metabolized” throughout. The “Bacterial Biotransformation” value in series [13], in [14], in series [15], in series [16], in [17] and in series [18] was “Compound NOT metabolized” in each case. Moreover, the entries for the “Bacterial Biotransformation” value in series [19] and in series [20] were “Compound NOT metabolized” and “Compound metabolized”, respectively.
As for `O=C1CC2(CCCC2)CC(=O)N1CCCCN1CCN(c2ncccn2)CC1` [BUSPIRONE], the “Bacterial Biotransformation” value is given as “Compound NOT metabolized” in series [1]; “Compound NOT metabolized” in series [2]; “Compound metabolized” in [3]; “Compound NOT metabolized” in [4]; “Compound NOT metabolized” in [5]; “Compound NOT metabolized” in series [6]. The “Bacterial Biotransformation” value is listed as “Compound metabolized” in series [7]; “Compound NOT metabolized” in series [8]; “Compound metabolized” in series [9]; “Compound metabolized” in series [10]; “Compound NOT metabolized” in series [11]; “Compound metabolized” in series [12]. The “Bacterial Biotransformation” value in series [13] was “Compound metabolized”; in series [14], “Compound NOT metabolized”; in series [15], “Compound NOT metabolized”; in series [16], “Compound metabolized”; in series [17], “Compound NOT metabolized”; in series [18], “Compound metabolized”. Besides, the “Bacterial Biotransformation” value in series [19] and in series [20] was “Compound metabolized” each time.
As for `CCCC(C)(COC(N)=O)COC(=O)NC(C)C` (stereo not given) [CARISOPRODOL], the “Bacterial Biotransformation” value in series [1] was “Compound NOT metabolized”; in [2] it was “Compound metabolized”; in series [3], “Compound metabolized”; in [4] it was “Compound NOT metabolized”; in series [5] it was “Compound NOT metabolized”; in [6] it was “Compound metabolized”. Moreover, the “Bacterial Biotransformation” value in series [7], in series [8], in series [9], in series [10], in [11] and in [12] was “Compound metabolized” each time. Further, the “Bacterial Biotransformation” value is “Compound NOT metabolized” in series [13]; “Compound metabolized” in [14]; “Compound NOT metabolized” in series [15]; “Compound metabolized” in [16]; “Compound metabolized” in series [17]; “Compound metabolized” in series [18]. Moreover, the “Bacterial Biotransformation” value in series [19] and in series [20] was “Compound metabolized” throughout.
Take `COc1ccccc1OCCNCC(O)COc1cccc2[nH]c3ccccc3c12` (stereo not given) [CARVEDILOL]: the “Bacterial Biotransformation” value in series [1] is on record as “Compound NOT metabolized”; in series [2] it was “Compound metabolized”; in series [3] it was “Compound metabolized”; in series [4] it was “Compound NOT metabolized”; in series [5], “Compound NOT metabolized”; in series [6], “Compound NOT metabolized”. Moreover, the “Bacterial Biotransformation” value in [7] was “Compound metabolized”; in series [8], “Compound NOT metabolized”; in series [9], “Compound NOT metabolized”; in series [10], “Compound metabolized”; in [11], “Compound metabolized”; in [12], “Compound metabolized”. The “Bacterial Biotransformation” value is listed as “Compound metabolized” in series [13]; “Compound metabolized” in [14]; “Compound NOT metabolized” in series [15]; “Compound metabolized” in series [16]; “Compound NOT metabolized” in series [17]; “Compound metabolized” in series [18]. Further, the “Bacterial Biotransformation” value in [19] and in series [20] was “Compound metabolized” in each case.
Regarding `CC(C)(C)NCC(O)c1cc(Cl)c(N)c(Cl)c1` (stereo not given) [CLENBUTEROL], the “Bacterial Biotransformation” value in series [1], in series [2], in series [3], in series [4], in series [5] and in [6] was “Compound NOT metabolized” each time. Also, the “Bacterial Biotransformation” value in [7], in series [8], in [9], in series [10], in series [11] and in series [12] was “Compound NOT metabolized” each time. The “Bacterial Biotransformation” value in series [13], in series [14], in [15], in series [16], in [17] and in [18] was “Compound NOT metabolized” each time. Moreover, the “Bacterial Biotransformation” value in series [19] and in series [20] was “Compound NOT metabolized” each time.
